Our source for the Kd values is article PMC4974565, “Rapid construction of metabolite biosensors using domain-insertion profiling” (Nature Communications, 2016).

By Kd is commonly meant the equilibrium constant for the complex coming apart. Higher therefore signals a looser complex.

Molecules are shown by their SMILES.

This assay deals with T1, Tre-C04 (TMBP-cpGFP biosensor; T. litoralis D-trehalose/D-maltose-binding protein) (Thermococcus litoralis, UniProt Q7LYW7).
T1 construct: gene malE; residues 46-450 of TMBP fused to five N-terminal residues of mature E. coli MBP, codon-optimised; expressed in E. coli Tuner, Ni-NTA purified
T1 sequence (Q7LYW7 374-450): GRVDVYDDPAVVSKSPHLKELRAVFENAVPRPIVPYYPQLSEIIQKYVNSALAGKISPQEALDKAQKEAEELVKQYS
T1 sequence (Q7LYW7 46-373): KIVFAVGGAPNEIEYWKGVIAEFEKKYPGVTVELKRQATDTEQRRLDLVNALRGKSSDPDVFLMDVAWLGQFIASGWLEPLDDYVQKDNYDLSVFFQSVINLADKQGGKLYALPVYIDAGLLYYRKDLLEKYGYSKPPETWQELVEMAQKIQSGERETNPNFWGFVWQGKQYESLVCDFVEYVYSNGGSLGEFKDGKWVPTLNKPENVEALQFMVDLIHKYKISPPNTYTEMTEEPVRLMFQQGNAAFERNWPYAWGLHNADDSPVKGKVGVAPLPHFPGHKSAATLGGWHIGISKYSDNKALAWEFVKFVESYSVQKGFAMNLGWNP
Put plainly: cpGFP fluorescence dose-response, purified biosensor, four-parameter fit. To be noted: 500 nM protein; PBS; 0-50 μM sugar; Ex 485 / Em 515 nm.

With `OC[C@H]1O[C@H](O[C@H]2[C@H](O)[C@@H](O)C(O)O[C@@H]2CO)[C@H](O)[C@@H](O)[C@@H]1O` (some centres unmarked) [maltose], binding was characterised by a dissociation constant (Kd) of 81 ± 1 nM.
Turning to `OC[C@H]1O[C@H](O[C@H]2O[C@H](CO)[C@@H](O)[C@H](O)[C@H]2O)[C@H](O)[C@@H](O)[C@@H]1O` [trehalose], the Kd stood at 53 ± 1 nM.
